“And” between values parts separate entries of the source, which are not always exact repeats. Equal values may be shown once.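 These data come from cells grown in 96-well plates and exposed to compound for 48 hours at five concentrations. GI50: concentration for 50% inhibition of growth. At the TGI there is no net growth.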
Experiments:
Test in all cases: NCI-60 cell line screen, 48 h
ACHN renal = test system: ACHN renal
SK-MEL-28 melanoma = test system: SK-MEL-28 melanoma
K-562 leukemia = test system: K-562 leukemia
MDA-N = test system: MDA-N
NCI-H522 lung = test system: NCI-H522 lung
OVCAR-8 ovarian = test system: OVCAR-8 ovarian
M14 melanoma = test system: M14 melanoma
MCF7 breast = test system: MCF7 breast
786-0 renal = test system: 786-0 renal
HT29 colon = test system: HT29 colon
OVCAR-3 ovarian = test system: OVCAR-3 ovarian
RPMI-8226 leukemia = test system: RPMI-8226 leukemia
SF-539 CNS = test system: SF-539 CNS
HL-60(TB) leukemia = test system: HL-60(TB) leukemia
UACC-257 melanoma = test system: UACC-257 melanoma
SK-OV-3 ovarian = test system: SK-OV-3 ovarian
DLD-1 colon = test system: DLD-1 colon
HS 578T breast = test system: HS 578T breast
SR leukemia = test system: SR leukemia
IGROV1 ovarian = test system: IGROV1 ovarian
SN12C renal = test system: SN12C renal
COLO 205 colon = test system: COLO 205 colon
CAKI-1 renal = test system: CAKI-1 renal
SK-MEL-2 melanoma = test system: SK-MEL-2 melanoma
KM20L2 colon = test system: KM20L2 colon
LOX IMVI melanoma = test system: LOX IMVI melanoma
DMS 273 small cell lung = test system: DMS 273 small cell lung
MDA-MB-435 = test system: MDA-MB-435
OVCAR-5 ovarian = test system: OVCAR-5 ovarian
SNB-78 CNS = test system: SNB-78 CNS
OVCAR-4 ovarian = test system: OVCAR-4 ovarian
MALME-3M melanoma = test system: MALME-3M melanoma
MOLT-4 leukemia = test system: MOLT-4 leukemia
DMS 114 small cell lung = test system: DMS 114 small cell lung
BT-549 breast = test system: BT-549 breast
SNB-19 CNS = test system: SNB-19 CNS
NCI-H226 lung = test system: NCI-H226 lung
CCRF-CEM leukemia = test system: CCRF-CEM leukemia
HCT-116 colon = test system: HCT-116 colon
HCC-2998 colon = test system: HCC-2998 colon
DU-145 prostate = test system: DU-145 prostate
RXF 393 renal = test system: RXF 393 renal
XF 498 CNS = test system: XF 498 CNS
LXFL 529 NSCLC = test system: LXFL 529 NSCLC
HOP-62 NSCLC = test system: HOP-62 NSCLC
A549 NSCLC = test system: A549 NSCLC
KM12 colon = test system: KM12 colon
SK-MEL-5 melanoma = test system: SK-MEL-5 melanoma
SNB-75 CNS = test system: SNB-75 CNS
T-47D breast = test system: T-47D breast
UACC-62 melanoma = test system: UACC-62 melanoma
NCI-H460 lung = test system: NCI-H460 lung
HCT-15 colon = test system: HCT-15 colon
HOP-18 NSCLC = test system: HOP-18 NSCLC
NCI-H23 lung = test system: NCI-H23 lung
PC-3 prostate = test system: PC-3 prostate
SF-295 CNS = test system: SF-295 CNS
UO-31 renal = test system: UO-31 renal
U251 CNS = test system: U251 CNS
TK-10 renal = test system: TK-10 renal
SF-268 CNS = test system: SF-268 CNS
HOP-92 NSCLC = test system: HOP-92 NSCLC
EKVX NSCLC = test system: EKVX NSCLC
MDA-MB-231 breast = test system: MDA-MB-231 breast
M19-MEL melanoma = test system: M19-MEL melanoma
SW-620 colon = test system: SW-620 colon
A498 renal = test system: A498 renal

Cc1nc2c(o1)C(=O)c1ccccc1C2=Nc1ccccc1
GI50 (ACHN renal): 4.72 µM | TGI (ACHN renal): > 37.7 µM | TGI (SK-MEL-28 melanoma): 3.91 µM | GI50 (K-562 leukemia): 4.28 µM | TGI (K-562 leukemia): > 37.4 µM | TGI (MDA-N): 0.959 µM | GI50 (NCI-H522 lung): 3.21 µM | TGI (NCI-H522 lung): 7.81 µM and 4.27 µM | GI50 (OVCAR-8 ovarian): 4.16 µM | TGI (OVCAR-8 ovarian): 9.66 µM | GI50 (M14 melanoma): 1.64 µM | TGI (M14 melanoma): 3 µM and 2.11 µM | TGI (MCF7 breast): 5.47 µM | TGI (786-0 renal): > 55.8 µM | TGI (HT29 colon): 33.3 µM | GI50 (OVCAR-3 ovarian): 2.5 µM | TGI (OVCAR-3 ovarian): 4.52 µM and 8.04 µM | GI50 (RPMI-8226 leukemia): 4.43 µM | TGI (RPMI-8226 leukemia): 11.1 µM | GI50 (SF-539 CNS): 1.96 µM | TGI (SF-539 CNS): 3.66 µM and 5.95 µM | GI50 (HL-60(TB) leukemia): 3.04 µM | TGI (HL-60(TB) leukemia): 11.6 µM | TGI (UACC-257 melanoma): 5.46 µM and 4.39 µM | TGI (SK-OV-3 ovarian): 31.2 µM | TGI (DLD-1 colon): 29.2 µM | TGI (HS 578T breast): 5.38 µM | TGI (SR leukemia): > 93.5 µM | TGI (IGROV1 ovarian): 20.6 µM | GI50 (SN12C renal): 2.99 µM | TGI (SN12C renal): 7.38 µM and 6.18 µM | TGI (COLO 205 colon): 27.1 µM | TGI (CAKI-1 renal): 32 µM | GI50 (SK-MEL-2 melanoma): 3.62 µM | TGI (SK-MEL-2 melanoma): 2.95 µM | TGI (KM20L2 colon): 42 µM | TGI (LOX IMVI melanoma): 5.2 µM | TGI (DMS 273 small cell lung): 6.1 µM | TGI (MDA-MB-435): 1.09 µM | TGI (OVCAR-5 ovarian): 11.8 µM | TGI (SNB-78 CNS): 9.13 µM | GI50 (OVCAR-4 ovarian): 2.15 µM | TGI (OVCAR-4 ovarian): 6.5 µM and 5.86 µM | GI50 (MALME-3M melanoma): 1.69 µM | TGI (MALME-3M melanoma): 3.06 µM and 2.66 µM | GI50 (MOLT-4 leukemia): 4.55 µM and 4.44 µM | TGI (MOLT-4 leukemia): 34.5 µM | GI50 (DMS 114 small cell lung): 1.78 µM | TGI (DMS 114 small cell lung): 2.89 µM and 3.69 µM | TGI (BT-549 breast): 3.13 µM | GI50 (SNB-19 CNS): 11 µM | TGI (SNB-19 CNS): 23 µM | TGI (NCI-H226 lung): 31.9 µM | GI50 (CCRF-CEM leukemia): 4.61 µM | TGI (CCRF-CEM leukemia): > 65.8 µM | GI50 (HCT-116 colon): 3.35 µM | TGI (HCT-116 colon): 5.77 µM | TGI (HCC-2998 colon): 28.5 µM | TGI (DU-145 prostate): 3.33 µM | TGI (RXF 393 renal): 3.3 µM | TGI (XF 498 CNS): 7.69 µM and 6.99 µM | TGI (LXFL 529 NSCLC): 12.3 µM | TGI (HOP-62 NSCLC): 6.05 µM | GI50 (A549 NSCLC): 13.2 µM | TGI (A549 NSCLC): 32.3 µM | TGI (KM12 colon): 14.4 µM | GI50 (SK-MEL-5 melanoma): 1.73 µM | TGI (SK-MEL-5 melanoma): 3.1 µM and 2.72 µM | TGI (SNB-75 CNS): 3.94 µM and 3.81 µM | TGI (T-47D breast): 7.65 µM | GI50 (UACC-62 melanoma): 2.07 µM | TGI (UACC-62 melanoma): 3.84 µM and 6.7 µM | TGI (NCI-H460 lung): 12.3 µM | GI50 (HCT-15 colon): 3.17 µM | TGI (HCT-15 colon): 7.63 µM | GI50 (HOP-18 NSCLC): 4.27 µM | TGI (HOP-18 NSCLC): 3.39 µM and 10.1 µM | GI50 (NCI-H23 lung): 2.31 µM | TGI (NCI-H23 lung): 6.17 µM and 6.48 µM | TGI (PC-3 prostate): 6.51 µM | GI50 (SF-295 CNS): 1.95 µM | TGI (SF-295 CNS): 3.88 µM | GI50 (UO-31 renal): 3.66 µM | TGI (UO-31 renal): 7.62 µM | TGI (U251 CNS): 3.12 µM and 3.7 µM | TGI (TK-10 renal): 41.9 µM | GI50 (SF-268 CNS): 3.11 µM | TGI (SF-268 CNS): > 31.6 µM | TGI (HOP-92 NSCLC): 6.07 µM | GI50 (EKVX NSCLC): 7.57 µM | TGI (EKVX NSCLC): > 31.6 µM | TGI (MDA-MB-231 breast): 18.5 µM | GI50 (M19-MEL melanoma): 1.55 µM | TGI (M19-MEL melanoma): 3.24 µM and 2.97 µM | GI50 (SW-620 colon): 3.6 µM | TGI (SW-620 colon): 7.86 µM

CC[C@@]1(O)C(=O)OCc2c1cc1n(c2=O)Cc2c-1nc1ccccc1c2Cl
TGI (ACHN renal): 0.0684 µM | TGI (SK-MEL-28 melanoma): 63.9 µM | TGI (K-562 leukemia): > 100 µM | TGI (NCI-H522 lung): 1.28 µM | TGI (OVCAR-8 ovarian): 2.13 µM | TGI (M14 melanoma): 0.318 µM | TGI (786-0 renal): 0.126 µM | TGI (HT29 colon): 5.62 µM | TGI (OVCAR-3 ovarian): 4.84 µM | TGI (RPMI-8226 leukemia): 1.42 µM | TGI (SF-539 CNS): 0.022 µM | TGI (HL-60(TB) leukemia): 0.132 µM | TGI (UACC-257 melanoma): 7.01 µM | TGI (SK-OV-3 ovarian): 4.29 µM | TGI (DLD-1 colon): 63.4 µM | TGI (HS 578T breast): 43.3 µM | TGI (SR leukemia): 0.186 µM | TGI (IGROV1 ovarian): 16 µM | TGI (SN12C renal): 0.683 µM | TGI (COLO 205 colon): 27.4 µM | TGI (CAKI-1 renal): 1.99 µM | TGI (SK-MEL-2 melanoma): 7.72 µM | TGI (KM20L2 colon): 28.7 µM | TGI (LOX IMVI melanoma): 0.387 µM | TGI (DMS 273 small cell lung): 0.578 µM | TGI (OVCAR-5 ovarian): 3.65 µM | TGI (SNB-78 CNS): 87.5 µM | TGI (OVCAR-4 ovarian): 4.61 µM | TGI (MALME-3M melanoma): 12.6 µM | TGI (MOLT-4 leukemia): 0.113 µM | TGI (DMS 114 small cell lung): 2.06 µM | TGI (BT-549 breast): 4.89 µM | TGI (SNB-19 CNS): 15.5 µM | TGI (NCI-H226 lung): 0.022 µM | TGI (CCRF-CEM leukemia): 0.172 µM | TGI (HCT-116 colon): 1.11 µM | TGI (HCC-2998 colon): 9.58 µM | TGI (DU-145 prostate): 0.104 µM | TGI (RXF 393 renal): 0.116 µM | TGI (XF 498 CNS): 2.15 µM | TGI (LXFL 529 NSCLC): 34.7 µM | TGI (HOP-62 NSCLC): 0.0206 µM | TGI (A549 NSCLC): 3.76 µM | TGI (KM12 colon): 1.83 µM | TGI (SK-MEL-5 melanoma): 0.134 µM | TGI (SNB-75 CNS): 0.259 µM | TGI (T-47D breast): 0.349 µM | TGI (UACC-62 melanoma): 0.107 µM | TGI (NCI-H460 lung): 0.101 µM | TGI (HCT-15 colon): 39.5 µM | TGI (HOP-18 NSCLC): 18.3 µM | TGI (NCI-H23 lung): 0.028 µM | TGI (PC-3 prostate): > 100 µM | TGI (SF-295 CNS): 0.511 µM | TGI (UO-31 renal): 0.109 µM | TGI (U251 CNS): 0.445 µM | TGI (TK-10 renal): 80.8 µM | TGI (SF-268 CNS): 12.6 µM | TGI (HOP-92 NSCLC): 2.07 µM | TGI (EKVX NSCLC): 33.6 µM | TGI (MDA-MB-231 breast): > 80.3 µM | TGI (M19-MEL melanoma): 3.43 µM | TGI (A498 renal): 0.352 µM | TGI (SW-620 colon): 39.7 µM

— PubChem BioAssay (NCI)
